Where two headings read alike, the source gives them in different places.
How the values were obtained:
E-Coli = details: 2% HP
[1] = tested on: Staphylococcus Epidermidis; details: 2% HP
[2] = Dissociation of PAA in aqueous solution; details: pH 9.5
[3] = Stability of PAA/NVPA in alkaline solution (ion-exchange chromatography); assay type: physicochemical; details: for total PAA decomposed: pH adjusted to 9.3 with sodium hydroxide
Procedure: PAA is not very stable in both acidic and basic solutions (reactions 2 and 3), and is decomposed into acetic acid and oxygen easily. Additionally, PAA is decomposed by metal catalysis and hydrolysis, respectively, in an aqueous solution. […] When sodium hydroxide was used to adjust the pH of PAA solution to 9.3, about 80% of the total PAA were decomposed in 1 minute, with more than 90% being decomposed in 5 minutes. (FIG. 4).
Rapid decomposition of PAA will result in a loss of the disinfecting ability. Thus, it is critical to maintain PAA relatively stable in an alkaline solution. When pH was adjusted partially by sodium carbonate, greater than 90% of the total PAA was maintained in the 10 minutes (FIG. 4). The addition of a metal complexing agent, such as sodium pyrophosphate, etc., may be used to stabilize PAA. It is very important to maintain a relatively long pot-life of NVPA, because some microorganisms are difficult to being killed. Such microorganisms may require at least 3-5-minutes of contact time with the disinfecting detergent. Since NVPA is not very stable, the formulation of the invention is divided to two parts to preserve a long shelf life of PAA. The two parts will be mixed just prior to use. After mixing, PAA will be converted to NVPA and 90% of the total PAA will remain for at least 10 minutes.
FIG. 4. The pH of PAA solution was 9.3. The initial concentrations of PAA and HP were 0.2% (w/w %) and 4% (w/w %), respectively. The pH of the solution was adjusted by sodium hydroxide solution or sodium phosphate solution, and sodium carbonate or a stabilizer such like sodium pyrophosphate was used to stabilize PAA. The quantitative determination of PAA/NVPA was performed by ion-exchange chromatography.

Structure (SMILES) | Disinfecting efficacy (E-Coli; contact time 1 minute) [%] | Disinfecting efficacy (E-Coli; contact time 2 minutes) [%] | Disinfecting efficacy ([1]; contact time 1 minute) [%] | Disinfecting efficacy ([1]; contact time 2 minutes) [%] | share of initial PAA concentration existing in this state [2] [%] | total PAA maintained ([3]; pH adjusted partially by sodium carbonate, in 10 minutes) | total PAA decomposed ([3]; in 1 minute) | total PAA decomposed ([3]; in 5 minutes)
OO [HP, hydrogen peroxide] | ~90 | ~99 | ~90 | ~99 | – | – | – | –
CC(=O)OO [NVPA, non-volatile peracetate] | – | – | – | – | 95 | – | – | –
CC(=O)OO [PAA, Peracetic Acid] | – | – | – | – | 5 | greater than 90% | about 80% | more than 90%

Reference: US10226048B2 (priority 2014, dated 2019)
